PubChem BioAssay (NCI)
Where “and” joins values, the source holds several entries; their conditions need not be identical. Equal entries are not always repeated.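 Test compounds were applied to cells in 96-well plates for 48 hours at 5 doses. Here, GI50 denotes the concentration required for 50% inhibition of growth. TGI marks complete inhibition of growth.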 *1 amine or outer side, *2 acyl side, *3 side chain or, on linkers, in order; H or OH if unused. Where a SMILES comes first, the peptide text is derived from it. CO = O=C([*:1])[*:2]

Tests used:
Assay in all cases: NCI-60 cell line screen, 48 h
MCF7 breast = tested on: MCF7 breast
OVCAR-3 ovarian = tested on: OVCAR-3 ovarian
U251 CNS = tested on: U251 CNS
CAKI-1 renal = tested on: CAKI-1 renal
SF-539 CNS = tested on: SF-539 CNS
OVCAR-5 ovarian = tested on: OVCAR-5 ovarian
SN12C renal = tested on: SN12C renal
786-0 renal = tested on: 786-0 renal
IGROV1 ovarian = tested on: IGROV1 ovarian
UO-31 renal = tested on: UO-31 renal

Compound	GI50 (MCF7 breast)	TGI (MCF7 breast)	GI50 (OVCAR-3 ovarian)	TGI (OVCAR-3 ovarian)	GI50 (U251 CNS)	TGI (U251 CNS)	GI50 (CAKI-1 renal)	TGI (CAKI-1 renal)	GI50 (SF-539 CNS)	TGI (SF-539 CNS)	GI50 (OVCAR-5 ovarian)	TGI (OVCAR-5 ovarian)	GI50 (SN12C renal)	TGI (SN12C renal)	GI50 (786-0 renal)	TGI (786-0 renal)	GI50 (IGROV1 ovarian)	TGI (IGROV1 ovarian)	GI50 (UO-31 renal)	TGI (UO-31 renal)
O=S(=O)(NCCNc1cc(-c2cn(-c3ccccc3)nc2-c2cccc(O)c2)ccn1)c1ccc(F)cc1	2.19 µM	6.66 µM	1.98 µM	4.59 µM	2.62 µM	7.85 µM	3.89 µM	> 100 µM	1.71 µM	3.95 µM	1.93 µM	5.69 µM	3.69 µM	35.1 µM	2.49 µM	14.3 µM	3.21 µM	19.8 µM	2.31 µM	7.88 µM
COc1ccc2c(c1)C(=O)c1c-2c(N2CCN(C(=O)CN(C)C)CC2)nc2ccccc12	12.3 µM	27.6 µM	19.5 µM	58.6 µM	14.9 µM	30.6 µM	47.9 µM	> 100 µM	15.1 µM	30.3 µM	28.8 µM	67.3 µM	13 µM	27.9 µM	14.4 µM	33.7 µM	10 µM	26.4 µM	10.4 µM	26 µM
Nc1ccn(C2OC(COP(=O)(O)O)C(O)C2O)c(=O)n1 (stereo not given)		> 100 µM		> 100 µM		> 100 µM		> 100 µM		> 30.2 µM		> 100 µM		> 100 µM		> 100 µM		> 100 µM		> 100 µM
C[C@@H](Oc1cc(-c2cnn(C3CC4(CCNCC4)C3)c2)cnc1N)c1c(F)ccc(Cl)c1Cl	0.383 µM	1.88 µM	1.83 µM	5.19 µM	1.6 µM	3.92 µM	2.41 µM	7.2 µM	1.51 µM	2.96 µM	1.39 µM	6.65 µM	1.49 µM	7.1 µM	1.63 µM	3.17 µM	2.23 µM	7.91 µM	1.89 µM	4.28 µM
COc1ccc(C(=O)c2ccc(OC)cc2OC)cc1	2.75 µM	> 100 µM	2.2 µM	5.95 µM	4.27 µM	> 100 µM	3.75 µM	> 100 µM	2.81 µM	22.4 µM	8.79 µM	> 100 µM	5.58 µM	> 100 µM	5.32 µM	> 100 µM	2.61 µM	40.9 µM	2.7 µM	39.6 µM
COc1cc(-c2ccc(-[n+]3nc(-c4ccc([N+](=O)[O-])cc4)nn3-c3ccc([N+](=O)[O-])cc3)c(OC)c2)ccc1-[n+]1nc(-c2ccc([N+](=O)[O-])cc2)nn1-c1ccc([N+](=O)[O-])cc1	1.75 µM	4.47 µM	9.77 µM	38.2 µM	10.8 µM	38.7 µM	15.1 µM	48.5 µM	1.8 µM	3.97 µM	12.4 µM	45.5 µM	7.05 µM	40.3 µM	3.45 µM	23.2 µM	0.707 µM	51.7 µM	6.28 µM	27.8 µM
CCOC(=O)c1ccc2[nH]c(Cc3[nH]c4ccc(C(=O)OCC)cc4c3C)c(C)c2c1	1.98 µM	22.6 µM	3.06 µM	17.6 µM	0.473 µM	7.97 µM	1.55 µM	22.9 µM	1.37 µM	13.3 µM	8.94 µM	53.8 µM	4.92 µM	24.7 µM	4.51 µM	31.4 µM	2.35 µM	17 µM	7.26 µM	30.8 µM
CC(=O)O[C@H]1C(=O)[C@@]2(C)[C@H]([C@H](OC(=O)c3ccccc3)[C@]3(O)C[C@H](OC(=O)[C@H](OC(=O)CCC(=O)OC4CCC(S/N=C(N)/N=C(\N)N(C)C)CC4)[C@@H](NC(=O)c4ccccc4)c4ccccc4)C(C)=C1C3(C)C)[C@]1(OC(C)=O)CO[C@@H]1C[C@@H]2O (stereo not given in full)	< 0.005 µM	> 50 µM	0.0112 µM	> 50 µM	0.00815 µM	> 50 µM	1.27 µM	> 50 µM	0.00847 µM	0.0255 µM	0.0272 µM	> 50 µM	0.0325 µM	> 50 µM	0.115 µM	> 50 µM	0.113 µM	> 50 µM	0.619 µM	> 50 µM
C=C1C(=O)O[C@H]2[C@H]1CC/C(Cn1cc(Cn3ccc4cc(Cl)ccc43)nn1)=C\CC[C@@]1(C)O[C@@H]21	1.25 µM	3.02 µM	1.48 µM	2.83 µM	1.69 µM	3.35 µM	1.24 µM	2.5 µM	1.57 µM	2.97 µM	1.65 µM	3.54 µM	1.5 µM	3.2 µM	1.81 µM	3.57 µM	1.42 µM	2.9 µM	1.09 µM	2.29 µM
Nc1nc(F)nc2c1ncn2C1OC(COP(=O)(O)O)C(O)C1O (stereo not given)		717 µM		546 µM		> 1250 µM		> 68.4 µM		859 µM		617 µM		145 µM		384 µM		952 µM		76.4 µM
CC(C)C(NC(=O)C(CCCN=C(N)N)NC(=O)NC(Cc1ccccc1)C(=O)O)C(=O)NC(C=O)CCCN=C(N)N (stereo not drawn) ({Phe-CO}-Arg-Val-Arg-aldehyde; configuration not given here)	> 5 µM	> 5 µM	> 5 µM	> 5 µM	> 5 µM	> 5 µM	> 5 µM	> 5 µM	> 5 µM	> 5 µM	> 5 µM	> 5 µM	> 5 µM	> 5 µM	> 5 µM	> 5 µM	> 5 µM	> 5 µM	> 5 µM	> 5 µM
CCSc1nc(=S)[nH]c2[nH]ncc12	66.8 µM	> 100 µM	64.6 µM	> 100 µM	> 100 µM	> 100 µM	50.8 µM	> 100 µM	45.1 µM	> 100 µM	> 100 µM	> 100 µM	> 100 µM	> 100 µM	> 100 µM	> 100 µM	70.3 µM	> 100 µM	75.2 µM	> 100 µM
CN(C)c1ccc2[nH]c(O)c(C=Nc3ccc(S(N)(=O)=O)cc3)c2c1	19 µM	> 25 µM	> 25 µM	> 25 µM	> 25 µM	> 25 µM	> 25 µM	> 25 µM	> 25 µM	> 25 µM	> 25 µM	> 25 µM	> 25 µM	> 25 µM	> 25 µM	> 25 µM	> 25 µM	> 25 µM	> 25 µM	> 25 µM
O=C1C=CC(=O)N1c1ccc2c(c1)Cc1cc(NC(=O)C(F)(F)F)ccc1-2		34.4 µM		31.2 µM		34 µM		32.7 µM		32.8 µM		31.8 µM		32.1 µM		13 µM		32.3 µM		28.4 µM
Cc1cc(Nc2ncc(Cl)c(Nc3ccccc3S(=O)(=O)C(C)C)n2)c(OC(C)C)cc1C1CCNCC1	0.552 µM	2.04 µM	1.61 µM and 1.37 µM	3.01 µM and 2.66 µM	1.39 µM	2.72 µM	1.87 µM	5.29 µM	1.62 µM	2.99 µM	1.14 µM and 0.714 µM and 0.644 µM	2.38 µM and 2.13 µM and 2.15 µM	1.76 µM	3.29 µM	1.56 µM	3.01 µM	1.56 µM and 1.12 µM	3.37 µM and 2.36 µM	1.29 µM and 1.14 µM	2.63 µM and 2.36 µM
CCC[C@H](Nc1nc(-c2ccc(NC(=O)NCC)c(OC)c2)ncc1C)c1cccnc1	0.0365 µM	29.6 µM	0.0221 µM	0.0492 µM	0.0395 µM	17.7 µM	0.222 µM	24 µM	0.0334 µM	3.87 µM	0.0579 µM	> 100 µM	0.0486 µM	20.5 µM	0.0453 µM	12.6 µM	0.0566 µM	24.6 µM	0.277 µM	17.2 µM
c1cncc(-c2cc(-c3cc(-c4cccnc4)n[nH]3)[nH]n2)c1		> 100 µM		> 100 µM		> 100 µM		> 100 µM		> 100 µM		> 100 µM		> 100 µM		> 100 µM		> 100 µM		> 100 µM
CCC[CH2][Sn]([CH2]CCC)([O]C(=O)c1cccc(F)c1F)[O][Sn]([CH2]CCC)([CH2]CCC)[O]C(=O)c1cccc(F)c1F	0.0463 µM	0.2 µM	0.493 µM	1.64 µM	0.147 µM	0.449 µM	0.116 µM	0.363 µM	0.208 µM	0.722 µM	1.47 µM	2.9 µM	0.293 µM	1.15 µM	0.154 µM	0.344 µM	0.781 µM	2.15 µM	0.506 µM	1.72 µM
O=C(/C=C/C12c3ccccc3C(c3ccccc31)C1C(=O)NC(=O)C12)c1ccco1 (stereo not given)	2.49 µM	12.6 µM	2.47 µM	5.8 µM	2.01 µM	4.36 µM	3.74 µM	14 µM	2.04 µM	4.16 µM	3.15 µM	10.7 µM	3.21 µM	11.3 µM	3.28 µM	10.8 µM	3.24 µM	9.73 µM	2.19 µM	7.49 µM
COc1cc(/C=C/C(=O)CC(=O)/C=C/c2ccc(OC(=O)CCNC34CC5CC(CC(C5)C3)C4)c(OC)c2)ccc1OC(=O)CCNC12CC3CC(CC(C3)C1)C2	2.36 µM	9.89 µM	4.09 µM	21.9 µM	3.39 µM	12 µM	2.51 µM	9.33 µM	2.09 µM	4.81 µM	4.34 µM	16.8 µM	3.32 µM	17.8 µM	3.2 µM	21.3 µM	3.52 µM	8.08 µM	3.45 µM	14.8 µM
CN1CCN(Cc2ccc(NC(=O)c3[nH]ncc3Nc3ccnc4ccsc34)cc2)CC1	0.489 µM	11.7 µM	2.34 µM	11.5 µM	2.4 µM	13.6 µM	6.04 µM	27.6 µM	1.35 µM	3.42 µM	4.08 µM	14.7 µM	2.78 µM	14.4 µM	3.84 µM	13.6 µM	2.82 µM	16.7 µM	1.78 µM	10.1 µM
COc1cc(N)ccc1Nc1c2ccccc2nc2ccccc12	2.27 µM	13.5 µM	12.2 µM	25.4 µM	4.39 µM	11.5 µM	7.75 µM	25.1 µM	12.1 µM	26.5 µM	15 µM	29.9 µM	7.73 µM	24.9 µM	12.7 µM	27.2 µM	10.2 µM	> 59.4 µM	5.33 µM	22.8 µM
CCC(=O)Nc1ccc2c(c1)CN1C(=O)c3ccccc3C1=N2	> 100 µM	> 100 µM	> 100 µM	> 100 µM	> 100 µM	> 100 µM	> 100 µM	> 100 µM	> 100 µM	> 100 µM	> 100 µM	> 100 µM	> 100 µM	> 100 µM	> 100 µM	> 100 µM	> 100 µM	> 100 µM	> 100 µM	> 100 µM
Cc1cc(Nc2nc(N3CCOCC3)nc3ccccc23)n[nH]1	9.7 µM	> 100 µM	11.5 µM	> 100 µM	4.83 µM	21.6 µM	1.4 µM	12.3 µM	4.27 µM	16.6 µM	25.4 µM	> 100 µM	4.23 µM	> 100 µM	3.91 µM	26.1 µM	2.12 µM	27.1 µM	1.38 µM	11.2 µM
